Source: the supplement of paper PMC10307832

Legend:
Assay in all cases: relative viability (nuclei count vs DMSO), 5 days (fraction); higher = more cells survive
[1] = compound: CS(=O)(=O)N1CCN(Cc2cc3nc(-c4cccc5[nH]ncc45)nc(N4CCOCC4)c3s2)CC1 [Pictilisib] + COc1cccc2cc(-c3nc([C@H]4CC[C@H](C(=O)O)CC4)n4ncnc(N)c34)[nH]c12 [OSI-027] (partner 0.5 µM)
Method in brief: (§1)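 Lung cancer cell lines were pin-tool dosed in 1536-well plates on the day after seeding, with either a lone drug or a fixed anchor-drug dose plus five library-drug doses (not always all listed) in √10 steps. Nuclei were counted on 4× images after 5 days. Relative viability is the ratio of treated-well to vehicle-well nuclei counts, with each value a median of duplicate plates.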

[2] = compound: CS(=O)(=O)N1CCN(Cc2cc3nc(-c4cccc5[nH]ncc45)nc(N4CCOCC4)c3s2)CC1 [Pictilisib] + C[C@@H](Oc1cc(-c2cnn(C3CCNCC3)c2)cnc1N)c1c(Cl)ccc(F)c1Cl [Crizotinib] (partner 1 µM)
Method in brief: as §1

[3] = compound: CS(=O)(=O)N1CCN(Cc2cc3nc(-c4cccc5[nH]ncc45)nc(N4CCOCC4)c3s2)CC1 [Pictilisib] + Cc1nc(Nc2ncc(C(=O)Nc3c(C)cccc3Cl)s2)cc(N2CCN(CCO)CC2)n1 [Dasatinib] (partner 0.075 µM)
Method in brief: as §1

[4] = compound: NC1(c2ccc(-c3nc4ccn5c(=O)[nH]nc5c4cc3-c3ccccc3)cc2)CCC1 [MK-2206] + CC(=O)c1c(C)c2cnc(Nc3ccc(N4CCNCC4)cn3)nc2n(C2CCCC2)c1=O [Palbociclib] (partner 0.5 µM)
Method in brief: as §1

[5] = compound: CS(=O)(=O)N1CCN(Cc2cc3nc(-c4cccc5[nH]ncc45)nc(N4CCOCC4)c3s2)CC1 [Pictilisib] + Cc1nc(NC(=O)N2CCC[C@H]2C(N)=O)sc1-c1ccnc(C(C)(C)C(F)(F)F)c1 [Alpelisib] (partner 2 µM)
Method in brief: as §1

Row | Cell Line | relative viability ([1]; first compound 0.02 µM) | relative viability ([1]; first compound 0.06325 µM) | relative viability ([1]; first compound 0.6325 µM) | relative viability ([1]; first compound 2 µM) | relative viability ([2]; first compound 0.02 µM) | relative viability ([2]; first compound 0.06325 µM) | relative viability ([2]; first compound 0.6325 µM) | relative viability ([2]; first compound 2 µM) | relative viability ([3]; first compound 0.02 µM) | relative viability ([3]; first compound 0.06325 µM) | relative viability ([3]; first compound 0.6325 µM) | relative viability ([3]; first compound 2 µM) | relative viability ([4]; first compound 0.01 µM) | relative viability ([4]; first compound 0.03162 µM) | relative viability ([4]; first compound 0.3162 µM) | relative viability ([4]; first compound 1 µM) | relative viability ([5]; first compound 0.02 µM) | relative viability ([5]; first compound 0.06325 µM) | relative viability ([5]; first compound 0.6325 µM) | relative viability ([5]; first compound 2 µM)
1 | 201T | 0.757 | 0.683 | 0.503 | 0.281 | 1.04 | 1.04 | 1.03 | 0.788 | 0.552 | 0.506 | 0.464 | 0.276 | 0.356 | 0.344 | 0.342 | 0.332 | 1.01 | 1.02 | 0.979 | 0.773
2 | A549 |  |  |  |  | 0.694 | 0.729 | 0.436 | 0.199 |  |  |  |  |  |  |  |  | 0.785 | 0.627 | 0.619 | 0.345
3 | A-427 | 0.492 | 0.405 | 0.393 | 0.351 | 0.979 | 0.829 | 0.908 | 0.603 | 0.666 | 0.616 | 0.648 | 0.347 | 0.512 | 0.585 | 0.507 | 0.524 | 1.13 | 1.09 | 1.06 | 1.04
4 | ABC-1 | 0.434 | 0.462 | 0.337 | 0.335 | 0.96 | 1.2 | 1.2 | 0.507 | 0.664 | 0.55 | 0.522 | 0.473 | 0.809 | 0.669 | 0.641 | 0.605 | 1.1 | 1.04 | 0.995 | 0.809
5 | BEN | 0.309 | 0.293 | 0.286 | 0.273 | 0.8 | 1.07 | 0.817 | 0.58 | 0.351 | 0.3 | 0.355 | 0.285 | 0.493 | 0.516 | 0.522 | 0.498 | 0.813 | 1.08 | 1.03 | 0.704
6 | CAL-12T | 0.8 | 0.642 | 0.339 | 0.167 | 0.615 | 0.893 | 0.704 | 0.471 | 0.352 | 0.3 | 0.141 | 0.0923 | 0.383 | 0.277 | 0.543 | 0.411 | 1.32 | 1.12 | 1.19 | 0.883
7 | COR-L23 | 0.767 | 0.809 | 0.732 | 0.372 | 0.584 | 0.75 | 0.668 | 0.594 | 0.445 | 0.481 | 0.384 | 0.295 | 0.277 | 0.312 | 0.268 | 0.291 | 0.821 | 0.804 | 0.8 | 0.572
8 | COR-L 105 | 0.735 | 0.629 | 0.472 | 0.28 | 0.814 | 0.913 | 0.988 | 0.418 | 0.414 | 0.283 | 0.209 | 0.181 | 0.428 | 0.436 | 0.441 | 0.408 | 1.08 | 0.957 | 0.861 | 0.692
9 | Calu-6 |  |  |  |  | 0.751 | 0.969 | 0.728 | 0.582 |  |  |  |  |  |  |  |  | 1.01 | 0.967 | 0.909 | 0.833
10 | ChaGo-K-1 | 0.586 | 0.626 | 0.411 | 0.314 | 1.17 | 1.21 | 1.08 | 0.947 | 0.628 | 0.682 | 0.517 | 0.384 | 0.961 | 0.98 | 0.937 | 0.932 |  |  |  | 
11 | EBC-1 |  |  |  |  | 0.205 | 0.211 | 0.213 | 0.175 |  |  |  |  |  |  |  |  | 0.904 | 0.836 | 0.67 | 0.295
12 | EKVX | 0.697 | 0.352 | 0.561 | 0.269 | 0.898 | 1.15 | 0.801 | 0.493 | 0.534 | 0.414 | 0.303 | 0.16 | 0.542 | 0.458 | 0.363 | 0.352 | 0.913 | 0.882 | 0.761 | 0.339
13 | EMC-BAC-2 | 0.378 | 0.364 | 0.26 | 0.245 | 0.779 | 0.811 | 0.691 | 0.601 | 0.317 | 0.324 | 0.247 | 0.199 | 0.511 | 0.517 | 0.462 | 0.456 | 0.754 | 0.766 | 0.721 | 0.577
14 | EPLC-272H | 0.296 | 0.284 | 0.242 | 0.18 | 0.995 | 0.993 | 0.702 | 0.72 | 0.304 | 0.323 | 0.216 | 0.142 | 0.32 | 0.287 | 0.315 | 0.328 | 1.06 | 0.877 | 0.826 | 0.738
15 | H3255 | 0.58 | 0.578 | 0.389 | 0.309 | 0.854 | 0.907 | 0.803 | 0.555 | 0.447 | 0.31 | 0.252 | 0.213 | 0.313 | 0.302 | 0.283 | 0.288 | 0.684 | 0.601 | 0.601 | 0.523
16 | HARA | 0.477 | 0.507 | 0.202 | 0.133 | 1.05 | 1.15 | 0.972 | 0.722 | 0.256 | 0.246 | 0.163 | 0.142 | 0.268 | 0.343 | 0.27 | 0.221 | 0.766 | 0.888 | 0.768 | 0.494
17 | HCC-15 | 0.693 | 0.641 | 0.407 | 0.32 | 0.791 | 0.926 | 0.761 | 0.583 | 0.639 | 0.627 | 0.492 | 0.301 | 0.695 | 0.792 | 0.662 | 0.653 | 0.829 | 0.926 | 0.829 | 0.714
